According to patent US8450317B2, “CXCR3 receptor antagonists” (Boehringer Ingelheim International GmbH, priority 2009, dated 2013):

Biological target: CXCR3 (Macaca fascicularis, UniProt A0A2K5UV19)
Test: functional cellular assay measuring calcium flux in CXCR3 transfected cells (block of CXCR3/IP-10 interaction)
Format: cell-based, Cyno
Settings: IP-10 induced intracellular calcium flux; Cyno-CHO cells stably expressing recombinant CXCR3 and G-alpha-16; IP-10 at EC80; read-out: IC50
Method in brief: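 Inhibition of IP-10-induced calcium flux at 10 microM final compound, 15 min room-temperature preincubation, with IP-10 at EC80. Cells: CHO stably transfected with cynomolgus CXCR3 plus G-alpha-16, dye-loaded (Ca-4, 2 mM probenecid, HBSS/HEPES pH 7.4) 1 h at 37° C.; fluorescence ex 480/em 540 nm.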

Sequence of CXCR3 (A0A2K5UV19 entry or part of it): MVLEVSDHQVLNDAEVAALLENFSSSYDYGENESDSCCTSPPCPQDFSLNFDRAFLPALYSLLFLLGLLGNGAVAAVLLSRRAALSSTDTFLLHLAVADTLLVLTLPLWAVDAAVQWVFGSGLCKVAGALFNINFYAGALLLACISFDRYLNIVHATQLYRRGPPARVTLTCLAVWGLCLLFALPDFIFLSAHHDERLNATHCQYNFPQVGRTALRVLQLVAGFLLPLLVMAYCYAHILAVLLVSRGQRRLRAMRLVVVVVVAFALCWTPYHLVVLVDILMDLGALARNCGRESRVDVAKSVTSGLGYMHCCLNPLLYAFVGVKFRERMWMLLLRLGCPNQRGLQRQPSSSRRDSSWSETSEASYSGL

Row | SMILES | IC50 [µM]
1 | Cc1cc(C)n(CC(=O)N2CCN(c3ccccc3-c3cnc(N4CCOCC4)nc3)CC2)n1 [2-(3,5-Dimethyl-pyrazol-1-yl)-1-{4-[2-(2-morpholin-4-yl-pyrimidin-5-yl)-phenyl]-piperazin-1-yl}-ethanone] | 0.009
2 | Cc1cc(C)n(CC(=O)N2CCN(c3ccccc3-c3cnc(N4CCCCC4)nc3)CC2)n1 [2-(3,5-Dimethyl-pyrazol-1-yl)-1-{4-[2-(2-piperidin-1-yl-pyrimidin-5-yl)-phenyl]-piperazin-1-yl}-ethanone] | 0.007
3 | Cc1cc(C)n(CC(=O)N2CCN(c3ccc(C(F)(F)F)cc3-c3cnc(S(C)(=O)=O)nc3)CC2C)n1 (stereo not drawn) [2-(3,5-dimethyl-1H-pyrazol-1-yl)-1-(2-methyl-4-{2-[2-(methylsulfonyl)pyrimidin-5-yl]-4-(trifluoromethyl)phenyl}piperazin-1-yl)ethanone] | 0.056
4 | Cc1cc(C)n(CC(=O)N2CCN(c3ccc(F)cc3-c3cnc(S(C)(=O)=O)nc3)CC2)n1 [2-(3,5-dimethyl-1H-pyrazol-1-yl)-1-(4-{4-fluoro-2-[2-(methylsulfonyl)pyrimidin-5-yl]phenyl}piperazin-1-yl)ethanone] | 0.278
5 | Cc1cc(C)n(CC(=O)N2CCN(c3ccccc3-c3cnc(N4CCC(S(C)(=O)=O)CC4)nc3)CC2C)n1 (stereo not drawn) [2-(3,5-dimethyl-1H-pyrazol-1-yl)-1-[2-methyl-4-(2-{2-[4-(methylsulfonyl)piperidin-1-yl]pyrimidin-5-yl}phenyl)piperazin-1-yl]ethanone] | 0.009
6 | Cc1cc(C)n(CC(=O)N2CCN(c3ccc(F)cc3-c3cnc(N4CCC(S(C)(=O)=O)CC4)nc3)CC2C)n1 (stereo not drawn) [2-(3,5-dimethyl-1H-pyrazol-1-yl)-1-[4-(4-fluoro-2-{2-[4-(methylsulfonyl)piperidin-1-yl]pyrimidin-5-yl}phenyl)-2-methylpiperazin-1-yl]ethanone] | 0.01
7 | Cc1cc(C)n(CC(=O)N2CCN(c3ccc(F)cc3-c3cnc(N4CCC(S(C)(=O)=O)CC4)nc3)CC2)n1 [2-(3,5-dimethyl-1H-pyrazol-1-yl)-1-[4-(4-fluoro-2-{2-[4-(methylsulfonyl)piperidin-1-yl]pyrimidin-5-yl}phenyl)piperazin-1-yl]ethanone] | 0.011
8 | Cc1cc(C)n(CC(=O)N2CCN(c3ccc(C(F)(F)F)cc3-c3cnc(N4CCC(S(C)(=O)=O)CC4)nc3)CC2C)n1 (stereo not drawn) [2-(3,5-dimethyl-1H-pyrazol-1-yl)-1-{2-methyl-4-[2-{2-[4-(methylsulfonyl)piperidin-1-yl]pyrimidin-5-yl}-4-(trifluoromethyl)phenyl]piperazin-1-yl}ethanone] | 0.007
9 | CC1CN(c2ccc(C(F)(F)F)cc2-c2cnc(S(C)(=O)=O)nc2)CCN1C(=O)Cn1cnc2cccnc21 (stereo not drawn) [2-(3H-imidazo[4,5-b]pyridin-3-yl)-1-(2-methyl-4-{2-[2-(methylsulfonyl)pyrimidin-5-yl]-4-(trifluoromethyl)phenyl}piperazin-1-yl)ethanone] | 0.189
10 | CC1CN(c2ccccc2-c2cnc(S(C)(=O)=O)nc2)CCN1C(=O)Cn1cnc2cccnc21 (stereo not drawn) [2-(3H-imidazo[4,5-b]pyridin-3-yl)-1-(2-methyl-4-{2-[2-(methylsulfonyl)pyrimidin-5-yl]phenyl}piperazin-1-yl)ethanone] | 0.434
11 | CC1CN(c2ccccc2-c2cnc(N3CCC(S(C)(=O)=O)CC3)nc2)CCN1C(=O)Cn1cnc2cccnc21 (stereo not drawn) [2-(3H-imidazo[4,5-b]pyridin-3-yl)-1-[2-methyl-4-(2-{2-[4-(methylsulfonyl)piperidin-1-yl]pyrimidin-5-yl}phenyl)piperazin-1-yl]ethanone] | 0.014
12 | CC1CN(c2ccc(C(F)(F)F)cc2-c2cnc(N3CCC(S(C)(=O)=O)CC3)nc2)CCN1C(=O)Cn1cnc2cccnc21 (stereo not drawn) [2-(3H-imidazo[4,5-b]pyridin-3-yl)-1-{2-methyl-4-[2-{2-[4-(methylsulfonyl)piperidin-1-yl]pyrimidin-5-yl}-4-(trifluoromethyl)phenyl]piperazin-1-yl}ethanone] | 0.007
13 | COc1ncc(-c2ccccc2N2CCN(C(=O)Cn3nc(C)c(Cl)c3C)CC2)cn1 [2-(4-Chloro-3,5-dimethyl-pyrazol-1-yl)-1-{4-[2-(2-methoxy-pyrimidin-5-yl)-phenyl]-piperazin-1-yl}-ethanone] | 0.01
14 | COc1ncc(-c2ccccc2N2CCN(C(=O)Cn3ccc4cc(F)cnc43)CC2)cn1 [2-(5-Fluoro-pyrrolo[2,3-b]pyridin-1-yl)-1-{4-[2-(2-methoxy-pyrimidin-5-yl)-phenyl]-piperazin-1-yl}-ethanone] | 0.008
15 | COc1ncc(-c2ccccc2N2CCN(C(=O)Cn3cnc4cccnc43)CC2)cn1 [2-Imidazo[4,5-b]pyridin-3-yl-1-{4-[2-(2-methoxy-pyrimidin-5-yl)-phenyl]-piperazin-1-yl}-ethanone] | 0.015
16 | COc1ncc(-c2ccccc2N2CCN(C(=O)Cn3ncc4ccccc43)CC2)cn1 [2-Indazol-1-yl-1-{4-[2-(2-methoxy-pyrimidin-5-yl)-phenyl]-piperazin-1-yl}-ethanone] | 0.035
17 | COc1ncc(-c2ccccc2N2CCN(C(=O)Cn3cc4ccccc4n3)CC2)cn1 [2-Indazol-2-yl-1-{4-[2-(2-methoxy-pyrimidin-5-yl)-phenyl]-piperazin-1-yl}-ethanone] | 0.028

Further compounds by falling IC50, results first:

Row | IC50 [µM] | SMILES
18 | 0.293 | CC1CN(c2ccccc2-c2cnc(S(C)(=O)=O)nc2)CCN1C(=O)CN1Cc2ccccc2C1=O (stereo not drawn) [2-[2-(2-methyl-4-{2-[2-(methylsulfonyl)pyrimidin-5-yl]phenyl}piperazin-1-yl)-2-oxoethyl]-2,3-dihydro-1H-isoindol-1-one]
19 | 0.157 | Cc1cc(C)n(CC(=O)N2CCN(c3ccc(F)cc3-c3cnc(S(C)(=O)=O)nc3)CC2C)n1 (stereo not drawn) [2-(3,5-dimethyl-1H-pyrazol-1-yl)-1-(4-{4-fluoro-2-[2-(methylsulfonyl)pyrimidin-5-yl]phenyl}-2-methylpiperazin-1-yl)ethanone]
20 | 0.101 | CC1CN(c2ccc(C(F)(F)F)cc2-c2cnc(S(C)(=O)=O)nc2)CCN1C(=O)CN1Cc2ccccc2C1=O (stereo not drawn) [2-[2-(2-methyl-4-{2-[2-(methylsulfonyl)pyrimidin-5-yl]-4-(trifluoromethyl)phenyl}piperazin-1-yl)-2-oxoethyl]-2,3-dihydro-1H-isoindol-1-one]
21 | 0.058 | COc1ccc(-c2ccccc2N2CCN(C(=O)Cn3nc(C)cc3C)CC2)cn1 [2-(3,5-Dimethyl-pyrazol-1-yl)-1-{4-[2-(6-methoxy-pyridin-3-yl)-phenyl]-piperazin-1-yl}-ethanone]
22 | 0.048 | COc1ncc(-c2ccccc2N2CCN(C(=O)Cn3ccc4c(Cl)ncnc43)CC2)cn1 [2-(4-Chloro-pyrrolo[2,3-d]pyrimidin-7-yl)-1-{4-[2-(2-methoxy-pyrimidin-5-yl)-phenyl]-piperazin-1-yl}-ethanone]
23 | 0.044 | COc1ncc(-c2ccccc2N2CCN(C(=O)Cn3ccc4ccccc43)CC2)cn1 [2-Indol-1-yl-1-{4-[2-(2-methoxy-pyrimidin-5-yl)-phenyl]-piperazin-1-yl}-ethanone]
24 | 0.04 | Cc1cc(C)n(CC(=O)N2CCN(c3ccc(F)cc3-c3cnc(N4CCN(C)CC4)nc3)CC2)n1 [2-(3,5-dimethyl-1H-pyrazol-1-yl)-1-(4-{4-fluoro-2-[2-(4-methylpiperazin-1-yl)pyrimidin-5-yl]phenyl}piperazin-1-yl)ethanone]
25 | 0.039 | Cc1cc(C)n(CC(=O)N2CCN(c3ccccc3-c3cnc(Oc4ccccc4)nc3)CC2)n1 [2-(3,5-Dimethyl-pyrazol-1-yl)-1-{4-[2-(2-phenoxy-pyrimidin-5-yl)-phenyl]-piperazin-1-yl}-ethanone]
26 | 0.016 | Cc1cc(C)n(CC(=O)N2CCN(c3ccc(F)cc3-c3cnc(N4CCCC4)nc3)CC2)n1 [2-(3,5-dimethyl-1H-pyrazol-1-yl)-1-(4-{4-fluoro-2-[2-(pyrrolidin-1-yl)pyrimidin-5-yl]phenyl}piperazin-1-yl)ethanone]
27 | 0.016 | COc1ncc(-c2ccccc2N2CCN(C(=O)Cn3ccc4ccnc(Cl)c43)CC2)cn1 [2-(7-Chloro-pyrrolo[2,3-c]pyridin-1-yl)-1-{4-[2-(2-methoxy-pyrimidin-5-yl)-phenyl]-piperazin-1-yl}-ethanone]
28 | 0.014 | COc1ncc(-c2cc(F)ccc2N2CCN(C(=O)Cn3nc(C)cc3C)CC2)cn1 [2-(3,5-Dimethyl-pyrazol-1-yl)-1-{4-[4-fluoro-2-(2-methoxy-pyrimidin-5-yl)-phenyl]-piperazin-1-yl}-ethanone]
29 | 0.013 | Cc1cc(C)n(CC(=O)N2CCN(c3ccccc3-c3cnc(N4CCC(O)CC4)nc3)CC2C)n1 (stereo not drawn) [2-(3,5-dimethyl-1H-pyrazol-1-yl)-1-(4-{2-[2-(4-hydroxypiperidin-1-yl)pyrimidin-5-yl]phenyl}-2-methylpiperazin-1-yl)ethanone]
30 | 0.009 | Cc1cc(C)n(CC(=O)N2CCN(c3ccc(F)cc3-c3cnc(N4CCC(O)CC4)nc3)CC2)n1 [2-(3,5-dimethyl-1H-pyrazol-1-yl)-1-(4-{4-fluoro-2-[2-(4-hydroxypiperidin-1-yl)pyrimidin-5-yl]phenyl}piperazin-1-yl)ethanone]
31 | 0.008 | Cc1cc(C)n(CC(=O)N2CCN(c3ccc(C(F)(F)F)cc3-c3cnc(N4CCC(O)CC4)nc3)CC2C)n1 (stereo not drawn) [2-(3,5-dimethyl-1H-pyrazol-1-yl)-1-(4-{2-[2-(4-hydroxypiperidin-1-yl)pyrimidin-5-yl]-4-(trifluoromethyl)phenyl}-2-methylpiperazin-1-yl)ethanone]
32 | 0.007 | Cc1cc(C)n(CC(=O)N2CCN(c3ccccc3-c3cnc(N4CCCC4)nc3)CC2)n1 [2-(3,5-Dimethyl-pyrazol-1-yl)-1-{4-[2-(2-pyrrolidin-1-yl-pyrimidin-5-yl)-phenyl]-piperazin-1-yl}-ethanone]
33 | 0.005 | Cc1cc(C)n(CC(=O)N2CCN(c3ccc(F)cc3-c3cnc(N4CCOCC4)nc3)CC2)n1 [2-(3,5-Dimethyl-pyrazol-1-yl)-1-{4-[4-fluoro-2-(2-morpholin-4-yl-pyrimidin-5-yl)-phenyl]-piperazin-1-yl}-ethanone]
